PMC7933358, “Enzymatic spiroketal formation via oxidative rearrangement of pentangular polyketides” (Nature Communications, 2021)

Key:
GrhO5 = biological target: T1, GrhO5 (Streptomyces sp. JP95, UniProt Q8KSX7); assay: identification of flavin bound to purified enzyme by HPLC; type: binding; conditions: co-purified cofactor
T1 construct: full-length gene in pMAL-c5x-His (NdeI/PstI), N-terminal MBP tag kept; E. coli BL21 (DE3); amplified from cosmid pMP31
T1 sequence (Q8KSX7 1-537): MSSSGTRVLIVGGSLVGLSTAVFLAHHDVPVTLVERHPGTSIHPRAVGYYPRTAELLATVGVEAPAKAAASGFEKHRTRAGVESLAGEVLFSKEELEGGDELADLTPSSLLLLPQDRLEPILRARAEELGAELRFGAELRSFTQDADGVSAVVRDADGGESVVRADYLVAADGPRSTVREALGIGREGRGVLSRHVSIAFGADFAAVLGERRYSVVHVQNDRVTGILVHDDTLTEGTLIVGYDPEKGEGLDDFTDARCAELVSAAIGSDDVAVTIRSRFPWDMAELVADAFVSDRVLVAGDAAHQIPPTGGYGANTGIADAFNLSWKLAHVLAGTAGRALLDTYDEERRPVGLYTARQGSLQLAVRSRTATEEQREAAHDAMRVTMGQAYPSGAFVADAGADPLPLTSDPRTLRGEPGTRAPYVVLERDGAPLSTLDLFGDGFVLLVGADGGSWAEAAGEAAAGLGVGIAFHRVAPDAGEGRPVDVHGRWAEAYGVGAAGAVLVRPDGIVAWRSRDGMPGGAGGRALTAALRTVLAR

GrhO6 = biological target: T2, GrhO6 (Streptomyces sp. JP95, UniProt Q8KSX5); assay: as above; type: binding; conditions: co-purified cofactor, tight, non-covalent
T2 construct: full-length gene in pETDuet-1 (EcoRI/PstI), polyhistidine tag kept; E. coli BL21 (DE3)
T2 sequence (Q8KSX5 1-520): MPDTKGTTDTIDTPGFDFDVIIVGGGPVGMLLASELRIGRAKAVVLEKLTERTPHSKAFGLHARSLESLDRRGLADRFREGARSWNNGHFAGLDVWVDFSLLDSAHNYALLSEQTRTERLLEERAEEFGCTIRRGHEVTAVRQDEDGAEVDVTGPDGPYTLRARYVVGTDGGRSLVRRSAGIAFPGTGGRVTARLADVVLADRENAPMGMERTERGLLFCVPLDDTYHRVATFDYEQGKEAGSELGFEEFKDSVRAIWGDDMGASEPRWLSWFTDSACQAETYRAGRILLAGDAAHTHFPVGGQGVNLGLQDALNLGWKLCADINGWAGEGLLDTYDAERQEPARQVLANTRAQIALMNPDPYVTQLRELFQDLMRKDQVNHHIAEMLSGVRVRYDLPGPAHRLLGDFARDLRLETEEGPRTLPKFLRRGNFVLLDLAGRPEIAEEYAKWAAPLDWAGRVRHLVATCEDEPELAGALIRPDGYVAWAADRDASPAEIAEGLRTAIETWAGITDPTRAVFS

Cc1cc2nc3c(=O)[nH]c(=O)nc-3n(C[C@H](O)[C@H](O)[C@H](O)COP(=O)(O)OP(=O)(O)OC[C@H]3O[C@@H](n4cnc5c(N)ncnc54)[C@H](O)[C@@H]3O)c2cc1C [FAD]
identification of flavin bound to purified enzyme by HPLC (GrhO5): bound flavin cofactor that was further determined as flavin adenine dinucleotide
identification of flavin bound to purified enzyme by HPLC (GrhO6): contained a tightly, but non-covalently bound FAD cofactor similar to GrhO5
